Test: xn = mol fraction of the nth substance listed
Conditions: 100 kPa

CCO + CC[n+]1ccn(CCOC)c1.N#C[S-]
x2 = 0
Conditions	viscosity [mPa·s]
288.15 K	1.319
293.15 K	1.194
298.15 K	1.085
303.15 K	0.988
313.15 K	0.826
318.15 K	0.757

CC[n+]1ccn(CCOC)c1.N#C[S-] + CCO
viscosity [mPa·s]
Conditions	x1 = 0.1	x1 = 0.1999	x1 = 0.3002	x1 = 0.3995	x1 = 0.5001	x1 = 0.6	x1 = 0.7	x1 = 0.797	x1 = 0.8964	x1 = 1
288.15 K	2.39	3.97	6.39	10.15	15.11	24.1	33.1	53.1	70.8	93.1
293.15 K	–	3.53	5.59	–	12.79	–	27.1	–	55.6	70.8
298.15 K	1.95	3.16	–	7.64	10.96	17.44	22.7	34.3	44.3	55.8
303.15 K	1.77	2.85	–	6.7	9.52	14.4	19.4	28.2	–	–
308.15 K	1.613	–	3.97	5.93	8.32	12.12	–	–	–	–
313.15 K	1.476	2.34	3.58	–	7.34	10.4	14.37	–	24.7	29.7
318.15 K	1.355	–	3.25	4.71	6.51	9.03	12.25	17.33	20.9	24.9

Source: a compilation of properties of binary mixtures (doi:10.1016/j.jct.2020.106320)
